Measured values reported in US20220304978A1, “INHIBITING MESANGIAL CELL ACTIVATION” (Chinook Therapeutics, Inc., priority 2019, published 2022).
Entries after “also recorded” stand apart in the source; their conditions may differ.

System: primary human renal mesangial cells (HRMCs)
Experiment: Proliferation (BrdU) of HRMCs stimulated with IgA-containing immune complexes from IgAN patients
Type: cell-based
Settings: immune complexes purified from three patients with IgA nephropathy
Source text: Primary human mesangial cells in a culture were stimulated with pathogenic galactose deficient (Gd)-IgA containing immune complexes isolated from human IgA nephropathy patients. […] Specifically, pathogenic IgA-containing immune complexes were isolated from serum from either IgA nephropathy patients or age, gender and ethnicity-matched healthy individuals. Frozen serum was purchased from BioIVT and IgA-containing immune complexes were purified using jacalin affinity chromatography. […] Purified IgA-containing immune complexes were concentrated using a 100K Amicon filtration unit and the amount of total IgA and galactose-deficient IgA (Gd-IgA) in the immune complexes was measured by ELISA (ThermoFisher and IBL America, respectively). […] See, e.g., Novak et. al., Kidney International, 67, pp. 504-516; 2005; Novak et. al., Nephrol. Dial. Transplant, 26, pp. 3451-3457; 2011; Liang et. al., Cell Physiol. Biochem., 36, pp. 1793-1808; 2015; Nguyen et. al., Clin. Kidney 1, 12 (2), pp, 232-238; 2019.

CCCCN(CCCC)C(=O)CN1C[C@H](c2ccc3c(c2)OCO3)[C@@H](C(=O)O)[C@@H]1c1ccc(OC)cc1 [atrasentan, (2R,3R,4S)-4-(1,3-benzodioxol-5-yl)-1-[2-(dibutylamino)-2-oxoethyl]-2-(4-methoxyphenyl)pyrrolidine-3-carboxylic acid]
hyperproliferation of HRMCs induced by IgA containing immune complexes: reduces the proliferation; also recorded: significantly attenuated
